According to ChEMBL document CHEMBL2074352, “N-glycosylation controls functional activity of Oatp1, an organic anion transporter” (Am J Physiol Gastrointest Liver Physiol, 2003):

Target: T1, Solute carrier organic anion transporter family member 1A1 (Rattus norvegicus, UniProt P46720)
T1 sequence (P46720 whole entry): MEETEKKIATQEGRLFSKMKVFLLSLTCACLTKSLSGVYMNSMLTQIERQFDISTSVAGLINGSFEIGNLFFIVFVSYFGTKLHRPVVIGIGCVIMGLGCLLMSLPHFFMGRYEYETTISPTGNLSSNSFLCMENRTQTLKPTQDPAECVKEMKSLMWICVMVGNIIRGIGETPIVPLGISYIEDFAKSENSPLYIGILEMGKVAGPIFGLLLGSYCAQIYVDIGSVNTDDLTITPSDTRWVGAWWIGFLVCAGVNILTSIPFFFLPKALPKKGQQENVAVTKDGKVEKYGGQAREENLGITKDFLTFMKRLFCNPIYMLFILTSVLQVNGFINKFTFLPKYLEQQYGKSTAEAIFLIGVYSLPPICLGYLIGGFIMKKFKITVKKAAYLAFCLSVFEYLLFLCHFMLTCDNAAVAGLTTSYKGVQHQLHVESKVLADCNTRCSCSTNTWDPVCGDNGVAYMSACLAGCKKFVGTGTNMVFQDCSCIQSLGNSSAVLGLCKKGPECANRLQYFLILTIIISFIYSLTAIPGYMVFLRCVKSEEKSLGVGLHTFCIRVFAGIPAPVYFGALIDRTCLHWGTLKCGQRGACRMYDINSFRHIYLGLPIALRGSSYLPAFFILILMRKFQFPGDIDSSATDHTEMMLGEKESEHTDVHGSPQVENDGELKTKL
Test: TP_TRANSPORTER: uptake in Oatp1-expressing Saccharomyces cerevisiae secretory vesicle
Format: functional, subcellular

| SMILES | Activity |
| --- | --- |
| C[C@]12CC[C@@H]3c4ccc(OS(=O)(=O)O)cc4CC[C@H]3[C@@H]1CCC2=O [ESTRONE SULFURIC ACID] | is not a substrate [-] |
| CCCCC/C=C\C\C=C/C=C/C=C/[C@@H](SC[C@@H](NC(=O)CC[C@H](N)C(=O)O)C(=O)NCC(=O)O)[C@@H](O)CCCC(=O)O [LEUKOTRIEN C4] | is not a substrate [-] |
